Biological target: T1, BCL6 (Homo sapiens, UniProt P41182)
T1 construct: HiBiT-tag knocked into endogenous BCL6 locus using CRISPR; endogenous in cells; host or cells: DHL-4_BCL6_HiBiT cells (CRISPR knock-in)
Experiment: 24 h degradation assay (BCL6 HiBiT)
Assay type: cell-based
Conditions: read-out: YCon (% remaining maximal effect)
Experimental: A DHL-4 cell line with HiBiT-tag knocked into endogenous BCL6 locus using CRISPR was generated. The DHL-4_BCL6_HiBiT cells were dispensed into 384-well plates (Corning no. 3570) that were pre-spotted with compounds. Compounds were dispensed by an acoustic dispenser (ATS acoustic transfer system from EDC Biosystems) into a 384-well plate in a 10-point dose response curve using 3-fold dilutions starting at 1-10 μM and going down to 0.0015-0.00015 μM. 25 μL of media (RPMI-1640+10% heat inactivated FBS+1×Pen/Strep) containing 2500 of DHL-4 was dispensed per well. […] After incubation, 25 μL of the Nano-Glo HiBiT lytic detection working solution (Promega, catalogue no. N3040, Madison, WI) was added to each well and incubated at room temperature for 15-30 min, protected from light. After 30 min, luminescence was read on an Envision or PHERAstar luminescence reader. To determine the EC50 value (the half-maximum effective concentration) and the level of the gradation (Yconstant) of a BCL6 degrader, luminescent signal normalized by DMSO control (Y) and compound concentration (x) was fitted using a four-parameter dose-response model (Y=(A+((B−A)/1+((C/x)^D) in Dotmatics. Fitted value C is the degradation EC50 and the minimum value A is the Y constant.

Compound | Emax
C[C@@H]1C[C@H](N(C)c2ncc(Cl)c(Nc3ccc4c(c3)CC(=O)N4C)n2)CC(=O)N1c1ccc2c(C3CCC(=O)NC3=O)nn(C)c2c1 (stereo partly drawn) [Example 150, 3-(6-((2R,4S)-4-((5-chloro-4-((1-methyl-2-oxoindolin-5-yl)amino)pyrimidin-2-yl)(methyl)amino)-2-methyl-6-oxopiperidin-1-yl)-1-methyl-1H-indazol-3-yl) piperidine-2,6-dione] | 20 to 60%
C[C@@H]1C[C@@H](N(C)c2ncc(Cl)c(Nc3ccc4c(c3)CC(=O)N4C)n2)CC(=O)N1c1ccc2c(C3CCC(=O)NC3=O)nn(C)c2c1 (stereo partly drawn) [Example 151, 3-(6-((2R,4R)-4-((5-chloro-4-((1-methyl-2-oxoindolin-5-yl)amino)pyrimidin-2-yl)(methyl)amino)-2-methyl-6-oxopiperidin-1-yl)-1-methyl-1H-indazol-3-yl) piperidine-2,6-dione] | < 20%
C[C@H]1C[C@@H](N(C)c2ncc(Cl)c(Nc3ccc4c(c3)CC(=O)N4C)n2)CC(=O)N1c1ccc2c(C3CCC(=O)NC3=O)nn(C)c2c1 (stereo partly drawn) [Example 152, 3-(6-((2S,4R)-4-((5-chloro-4-((1-methyl-2-oxoindolin-5-yl)amino)pyrimidin-2-yl)(methyl)amino)-2-methyl-6-oxopiperidin-1-yl)-1-methyl-1H-indazol-3-yl) piperidine-2,6-dione] | > 60%

Now from value to compound:

Emax | Compound
20 to 60% | CO[C@@H]1CN(c2ncc(C#N)c(Nc3ccc4c(c3)CC(=O)N4C)n2)CC[C@H]1Nc1ccc2c(C3CCC(=O)NC3=O)nn(C)c2c1 (stereo partly drawn) [Example 145, 2-((3R,4R)-4-((3-(2,6-dioxopiperidin-3-yl)-1-methyl-1H-indazol-6-yl)amino)-3-methoxypiperidin-1-yl)-4-((1-methyl-2-oxoindolin-5-yl)amino) pyrimidine-5-carbonitrile]
< 20% | C[C@H]1C[C@H](N(C)c2ncc(Cl)c(Nc3ccc4c(c3)CC(=O)N4C)n2)CC(=O)N1c1ccc2c(C3CCC(=O)NC3=O)nn(C)c2c1 (stereo partly drawn) [Example 153, 3-(6-((2S,4S)-4-((5-chloro-4-((1-methyl-2-oxoindolin-5-yl)amino)pyrimidin-2-yl)(methyl)amino)-2-methyl-6-oxopiperidin-1-yl)-1-methyl-1H-indazol-3-yl) piperidine-2,6-dione]

From patent US12404239B2, “Modulators of BCL6 as ligand directed degraders” (Celgene Corporation, priority 2022, dated 2025)
